# Data from PMC8219945 (Bioorganic Chemistry, 2021).
# Where two headings read alike, the source gives them in different places.
# System: SARS-CoV-2
# Experiment: Antiviral IC50 determination
# Assay type: cell-based, SARS-CoV-2 (hCoV-19/Egypt/NRC-03/2020)
Structure (SMILES),SI (selectivity index/therapeutical index): CC50/IC50 (CC50 VERO-E6 / IC50 SARS-CoV-2),SI (selectivity index/therapeutical index): CC50/IC50
"Cc1ccc(-n2cc(COc3cc(C(F)(F)F)nc4ccc(F)cc34)nn2)cc1 [Compound 10f, 6-Fluoro-4-((1-(p-tolyl)-1H-1,2,3-triazol-4-yl)methoxy)-2-(trifluoromethyl)quinoline]",1.71,
"COc1ccc2nc(C(F)(F)F)cc(OCc3cn(-c4ccc(C)cc4)nn3)c2c1 [Compound 10l, 6-Methoxy-4-((1-(p-tolyl)-1H-1,2,3-triazol-4-yl)methoxy)-2-(trifluoromethyl)quinoline]",0.65,
"Cc1ccc(-n2cc(COc3cc(C(F)(F)F)nc4ccccc34)nn2)cc1 [Compound 10b, 4-((1-(p-Tolyl)-1H-1,2,3-triazol-4-yl)methoxy)-2-(trifluoromethyl)quinoline]",0.49,
"COc1ccccc1-n1cc(COc2cc(C(F)(F)F)nc3ccccc23)nn1 [Compound 10e, 4-((1-(2-Methoxyphenyl)-1H-1,2,3-triazol-4-yl)methoxy)-2-(trifluoromethyl)quinoline]",0.03,
"COc1ccc(-n2cc(COc3cc(C(F)(F)F)nc4ccccc34)nn2)cc1 [Compound 10c, 4-((1-(4-Methoxyphenyl)-1H-1,2,3-triazol-4-yl)methoxy)-2-(trifluoromethyl)quinoline]",0.03,
"Fc1ccc(-n2cc(COc3cc(C(F)(F)F)nc4ccccc34)nn2)cc1 [Compound 10a, 4-((1-(4-Fluorophenyl)-1H-1,2,3-triazol-4-yl)methoxy)-2-(trifluoromethyl)quinoline]",5.04,
"COc1ccccc1-n1cc(COc2cc(C(F)(F)F)nc3ccc(F)cc23)nn1 [Compound 10h, 6-Fluoro-4-((1-(2-methoxyphenyl)-1H-1,2,3-triazol-4-yl)methoxy)-2-(trifluoromethyl)quinoline]",0.76,
"Fc1ccc2nc(C(F)(F)F)cc(OCc3cn(-c4ccccc4Cl)nn3)c2c1 [Compound 10g, 4-((1-(2-Chlorophenyl)-1H-1,2,3-triazol-4-yl)methoxy)-6-fluoro-2-(trifluoromethyl)quinoline]",26.42,
"CCN(CCO)CCCC(C)Nc1ccnc2cc(Cl)ccc12 (centres unmarked) [HCQ, hydroxychloroquine, reference compound]",,10.85
"Cc1ccc2nc(C(F)(F)F)cc(OCc3cn(-c4ccccc4Cl)nn3)c2c1 [Compound 10i, 4-((1-(2-Chlorophenyl)-1H-1,2,3-triazol-4-yl)methoxy)-6-methyl-2-(trifluoromethyl)quinoline]",4.51,
"COc1ccc2nc(C(F)(F)F)cc(OCc3cn(-c4ccc(F)cc4)nn3)c2c1 [Compound 10k, 4-((1-(4-Fluorophenyl)-1H-1,2,3-triazol-4-yl)methoxy)-6-methoxy-2-(trifluoromethyl)quinoline]",1.34,
"COc1ccccc1-n1cc(Cn2c(C(F)(F)F)cc(=O)c3cc(C)ccc32)nn1 [Compound 11c, 1-((1-(2-Methoxyphenyl)-1H-1,2,3-triazol-4-yl)methyl)-6-methyl-2-(trifluoromethyl)quinolin-4(1H)-one]",3.15,
"FC(F)(F)c1cc(OCc2cn(-c3ccccc3Cl)nn2)c2ccccc2n1 [Compound 10d, 4-((1-(2-Chlorophenyl)-1H-1,2,3-triazol-4-yl)methoxy)-2-(trifluoromethyl)quinoline]",2.85,
"COc1ccc(-n2cc(Cn3c(C(F)(F)F)cc(=O)c4ccccc43)nn2)cc1 [Compound 11a, 1-((1-(4-Methoxyphenyl)-1H-1,2,3-triazol-4-yl)methyl)-2-(trifluoromethyl)quinolin-4(1H)-one]",3.69,
